The text below walks through data of patent publication US20260224758A1, “ALPHA-SYNUCLEIN BINDERS AND METHODS OF USE” (Merck Sharp & Dohme LLC, priority 2023, published 2026).

The target of the test is T1, triton-extracted alpha-synuclein from PD Tissue (Homo sapiens, UniProt P37840).
T1 construct: tissue Analytic Biological Services Inc; host or cells: human PD temporal cortex grey matter, Triton X-100 insoluble pellet
Kind of test: Alpha-synuclein tissue homogenate binding assay (Assay 1), displacement of [^3H]-1000. The conditions noted are these: for Ki: read-out: α-synuclein Tissue Ki (Assay 1); for Selectivity ratio (Assay 2/Assay 1): Aβ Tissue Ki / α-synuclein Tissue Ki. The method, then: Frozen human brain tissues from PD patients were purchased from Analytic Biological Services Inc. The samples were post-mortem tissues from donors with clinical diagnosis of late stage of PD. Alpha-synuclein, tau and amyloid burden was determined through a combination of immunohistochemistry on frozen thin coronal sections, as well as alpha Lisa-based quantification of protein levels in a detergent insoluble protein fraction. A tissue sample of temporal cortex was identified from one donor as having moderate to high alpha-synuclein burden, low amyloid and minimal to no tau pathology. The detergent insoluble fraction of temporal cortex from this patient was used to support homogenate binding studies. Grey matter was dissected out of the temporal cortex tissue with a dissecting blade and minced with fine dissecting scissors. […] Homogenates were centrifuged at 100,000×g for 45 minutes. The pellet was resuspended in TBS-TX buffer, using a Polytron at highest setting for 30 seconds at 4° C. Homogenates were centrifuged at 100,000×g for 45 minutes and the pellet was resuspended in TBS-TX buffer. A BCA protein assay was performed on the final homogenate to determine the protein concentration. […] For displacement a-synuclein binding assay, compounds and control were solvated in dimethyl sulfoxide (DMSO) and transferred using focused acoustic energy by an Echo 655 liquid handling instrument (Beckman Coulter, Indianapolis, IN) into designated wells of uniquely bar coded 96-well v-bottom low binding polypropylene microplates (Thermo Scientific, 249946). Compound dose response curves were prepared in a 10-point, 3-fold fashion within columns 2-11 of the microplate from high to low compound concentrations. […] Liquid-handling steps for dispensing insoluble fractions of PD brain homogenates and radioligand were performed using a Bravo automated liquid handling platform equipped with a 96LT disposable tip head (Agilent Technologies, Santa Clara. CA). […] The incubation was terminated by rapid filtration through UniFilter-96 GF/C microplates (pre-treated for 30 minutes with 0.2% Polyethylenimine at 4° C.) by using a FilterMate Harvester (PerkinElmer). […] The bottom of each UniFilter-96 GF/C microplate was adhesively sealed (PerkinElmer 6005199) prior to the addition of 50 μL MicroScint-20 liquid scintillation cocktail (PerkinElmer 6013621) to each well. A clear adhesive seal (TopSeal-A PLUS, PerkinElmer 6050185) was then applied to the top of each microplate and counted 1 minute/well on MicroBeta^2 system (PerkinElmer.

[1] abbreviates: insoluble fraction of PD brain homogenate, [^3H]-1000 3.0 nM, Kd 0.90 nM.

Where two headings read alike, the source gives them in different places.

As a reminder, the Ki is the equilibrium dissociation constant of an inhibitor or competing ligand from its target. For the compound `COC[C@@H]1CN(c2ncncn2)CCN1c1ncc(C#Cc2cnc(-c3cnn(CCF)c3)nc2)cn1` [Example 87, (S)-2-(4-(5-((2-(1-(2-fluoroethyl)-1H-pyrazol-4-yl)pyrimidin-5-yl)ethynyl)pyrimidin-2-yl)-3-(methoxymethyl)piperazin-1-yl)-1,3,5-triazine], the Ki under setting [1] was found to be 0.89 nM.
On the same count and under the same terms, the value for `Cn1cc(-c2ncc(C#Cc3cnc(N4CCN(c5ncccn5)[C@@H](COCCOCCOCCOCCF)C4)nc3)cn2)cn1` [Example 83, (R)-2-(3-(13-fluoro-2,5,8,11-tetraoxatridecyl)-4-(pyrimidin-2-yl)piperazin-1-yl)-5-((2-(1-methyl-1H-pyrazol-4-yl)pyrimidin-5-yl)ethynyl)pyrimidine] was 2.39 nM.
In the case of `Cn1ccc(-c2ncc(C#Cc3cnc(N4CCN(c5ncc(F)cn5)[C@@H](COCCF)C4)nc3)cn2)n1` [Example 97, (R)-5-fluoro-2-(2-((2-fluoroethoxy)methyl)-4-(5-((2-(1-methyl-1H-pyrazol-3-yl)pyrimidin-5-yl)ethynyl)pyrimidin-2-yl)piperazin-1-yl)pyrimidine], the Ki was found to be 4.31 nM.
Consider `COC[C@H]1CN(c2ncc(C#Cc3cnc(-c4cnn(CCCF)c4)nc3)cn2)CCN1c1ncncn1` [Example 91, (R)-2-(4-(5-((2-(1-(3-fluoropropyl)-1H-pyrazol-4-yl)pyrimidin-5-yl)ethynyl)pyrimidin-2-yl)-2-(methoxymethyl)piperazin-1-yl)-1,3,5-triazine], for which the inhibition constant Ki under setting [1] is 2.44 nM.
Still for that read-out and setting: the value for `Cn1cc(-c2ncc(C#Cc3cnc(N4CCN(c5ncncn5)C[C@H]4COCCF)nc3)cn2)cn1` [Example 96, (S)-2-(3-((2-fluoroethoxy)methyl)-4-(5-((2-(1-methyl-1H-pyrazol-4-yl)pyrimidin-5-yl)ethynyl)pyrimidin-2-yl)piperazin-1-yl)-1,3,5-triazine] was 5.51 nM; that for `Cn1ccc(-c2ncc(C#Cc3cnc(N4CCN(c5ncncn5)[C@@H](COCCF)C4)nc3)cn2)n1` [Example 49, (R)-2-(2-((2-fluoroethoxy)methyl)-4-(5-((2-(1-methyl-1H-pyrazol-3-yl)pyrimidin-5-yl)ethynyl)pyrimidin-2-yl)piperazin-1-yl)-1,3,5-triazine] was 2.91 nM.
Same read-out and setting: then `Cn1nccc1-c1ncc(C#Cc2cnc(N3CCN(c4ncncn4)[C@@H](COCCF)C3)nc2)cn1` [Example 98, (R)-2-(2-((2-fluoroethoxy)methyl)-4-(5-((2-(1-methyl-1H-pyrazol-5-yl)pyrimidin-5-yl)ethynyl)pyrimidin-2-yl)piperazin-1-yl)-1,3,5-triazine], with 1.96 nM; and `COC[C@H]1CN(c2ncc(C#Cc3cnc(-c4cnn(CF)c4)nc3)cn2)CCN1c1ncncn1` [Example 56, (R)-2-(4-(5-((2-(1-(fluoromethyl)-1H-pyrazol-4-yl)pyrimidin-5-yl)ethynyl)pyrimidin-2-yl)-2-(methoxymethyl)piperazin-1-yl)-1,3,5-triazine], with 0.64 nM.
As for `Cn1cc(-c2ncc(C#Cc3cnc(N4CCN(c5ncncn5)[C@@H](COCF)C4)nc3)cn2)cn1` [Example 95, (R)-2-(2-((fluoromethoxy)methyl)-4-(5-((2-(1-methyl-1H-pyrazol-4-yl)pyrimidin-5-yl)ethynyl)pyrimidin-2-yl)piperazin-1-yl)-1,3,5-triazine], the Ki was 1.3 nM.
Take `C[C@H]1CN(c2ccc(F)cn2)CCN1c1ncc(C#Cc2cnc(-n3cnnc3)nc2)cn1` [Example 86, (S)-5-((2-(4H-1,2,4-triazol-4-yl)pyrimidin-5-yl)ethynyl)-2-(4-(5-fluoropyridin-2-yl)-2-methylpiperazin-1-yl)pyrimidine]: under setting [1], the Ki is 2.59 nM.
As for `COC[C@H]1CN(c2ncccn2)CCN1c1ncc(/C=C/c2ccc(-n3ccnc3)nc2)cn1` [Example 28, (R,E)-5-(2-(6-(1H-imidazol-1-yl)pyridin-3-yl)vinyl)-2-(2-(methoxymethyl)-4-(pyrimidin-2-yl)piperazin-1-yl)pyrimidine], the “Selectivity ratio (Assay 2/Assay 1)” value worked out at 3077. Moreover, the inhibitory constant (Ki) under setting [1] amounted to 1.3 nM.
As to `OC[C@H]1CN(c2ncc(/C=C/c3ccc(-n4ccnc4)nc3)cn2)CCN1c1ncccn1` [Example 1, (R,E)-(4-(5-(2-(6-(1H-imidazol-1-yl)pyridin-3-yl)vinyl)pyrimidin-2-yl)-1-(pyrimidin-2-yl)piperazin-2-yl)methanol], the Ki under setting [1] was determined as 1.6 nM.
With `FCCOC[C@H]1CN(c2ncc(C#Cc3cnc(-c4cnco4)nc3)cn2)CCN1c1ncccn1` [Example 93, (R)-5-(5-((2-(3-((2-fluoroethoxy)methyl)-4-(pyrimidin-2-yl)piperazin-1-yl)pyrimidin-5-yl)ethynyl)pyrimidin-2-yl)oxazole], the Ki under setting [1] worked out at 3.06 nM.
The same measure, in the same setting: then `COC[C@H]1CN(c2ncc(C#Cc3ccc(-n4cnnc4)nc3)c(F)n2)CCN1c1ccncn1` [Example 58, (R)-5-((6-(4H-1,2,4-triazol-4-yl)pyridin-3-yl)ethynyl)-4-fluoro-2-(3-(methoxymethyl)-4-(pyrimidin-4-yl)piperazin-1-yl)pyrimidine], with 1.67 nM; and `COC[C@H]1CN(c2ncc(C#Cc3cnc(-c4cnn(CCF)c4)nc3)cn2)CCN1c1ccc(F)cn1` [Example 85, (R)-2-(1-(2-fluoroethyl)-1H-pyrazol-4-yl)-5-((2-(4-(5-fluoropyridin-2-yl)-3-(methoxymethyl)piperazin-1-yl)pyrimidin-5-yl)ethynyl)pyrimidine], with 1.05 nM.
On to `COC[C@H]1CN(c2ncc(/C=C/c3ccc(-n4ccnc4)nc3)cn2)CCN1c1ncc(OCC(O)CF)cn1` (stereo partly drawn) [Example 39, 1-((2-((R)-4-(5-((E)-2-(6-(1H-imidazol-1-yl)pyridin-3-yl)vinyl)pyrimidin-2-yl)-2-(methoxymethyl)piperazin-1-yl)pyrimidin-5-yl)oxy)-3-fluoropropan-2-ol], for which the “Selectivity ratio (Assay 2/Assay 1)” value is given as 7692. For the same compound, the Ki under setting [1] was 0.52 nM.
As for `FCCOCCOC[C@H]1CN(c2ncc(C#Cc3cnc(-c4cncnc4)nc3)cn2)CCN1c1ncncn1` [Example 79, (R)-5-((2-(3-((2-(2-fluoroethoxy)ethoxy)methyl)-4-(1,3,5-triazin-2-yl)piperazin-1-yl)pyrimidin-5-yl)ethynyl)-2,5′-bipyrimidine], the Ki under setting [1] came out at 5.42 nM.
The Kd is a measure of binding affinity in units of concentration. In the case of “[^3H]-(S)-6-(1H-imidazol-1-yl)-N-(2-(2-methyl-4-(pyridin-2-yl)piperazin-1-yl)pyrimidin-5-yl)nicotinamide [[^3H]-1000, reference compound]”, the Kd (radioligand [^3H]-1000, PD brain insoluble fraction) was 0.9 nM.
On to `COC[C@H]1CN(c2ncc(C#Cc3cnc(-c4cnn(CCF)c4)nc3)cn2)CCN1c1ncc(F)cn1` [Example 88, (R)-5-fluoro-2-(4-(5-((2-(1-(2-fluoroethyl)-1H-pyrazol-4-yl)pyrimidin-5-yl)ethynyl)pyrimidin-2-yl)-2-(methoxymethyl)piperazin-1-yl)pyrimidine], for which the Ki under setting [1] came to 0.99 nM.
Same read-out and setting: then `COC[C@H]1CN(c2ncc(C#Cc3ccc(-c4cnn(CCF)c4)nc3)cn2)CCN1c1ncncn1` [Example 47, (R)-2-(4-(5-((6-(1-(2-fluoroethyl)-1H-pyrazol-4-yl)pyridin-3-yl)ethynyl)pyrimidin-2-yl)-2-(methoxymethyl)piperazin-1-yl)-1,3,5-triazine], with 0.694 nM.
